Experimental data: PubChem BioAssay (NCI)
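Dose response: 5 concentrations. Exposure: 48 h. Format: 96-well plates. Endpoint: linear interpolation; highest concentration if not reached. TGI is the concentration that stops growth completely.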

How the values were obtained:
Test in all cases: NCI-60 cell line screen, 48 h
[1] = tested on: MDA-MB-435
[2] = tested on: OVCAR-4 ovarian
[3] = tested on: MOLT-4 leukemia
[4] = tested on: HT29 colon
[5] = tested on: SW-620 colon
[6] = tested on: T-47D breast
[7] = tested on: NCI-H23 lung
[8] = tested on: COLO 205 colon
[9] = tested on: SR leukemia
[10] = tested on: UACC-257 melanoma
[11] = tested on: UO-31 renal
[12] = tested on: SK-MEL-28 melanoma
[13] = tested on: KM12 colon
[14] = tested on: NCI-H226 lung
[15] = tested on: RXF 393 renal
[16] = tested on: UACC-62 melanoma
[17] = tested on: M14 melanoma
[18] = tested on: PC-3 prostate
[19] = tested on: EKVX NSCLC
[20] = tested on: SK-MEL-2 melanoma
[21] = tested on: A498 renal
[22] = tested on: HS 578T breast
[23] = tested on: 786-0 renal
[24] = tested on: HOP-62 NSCLC
[25] = tested on: SF-539 CNS
[26] = tested on: SNB-19 CNS
[27] = tested on: OVCAR-8 ovarian
[28] = tested on: DU-145 prostate
[29] = tested on: A549 NSCLC
[30] = tested on: U251 CNS
[31] = tested on: TK-10 renal
[32] = tested on: HCC-2998 colon
[33] = tested on: MCF7 breast
[34] = tested on: CCRF-CEM leukemia
[35] = tested on: NCI-H460 lung
[36] = tested on: MDA-N
[37] = tested on: SNB-75 CNS
[38] = tested on: OVCAR-3 ovarian
[39] = tested on: MDA-MB-231 breast
[40] = tested on: NCI-H522 lung
[41] = tested on: ACHN renal
[42] = tested on: HCT-15 colon
[43] = tested on: CAKI-1 renal
[44] = tested on: SK-OV-3 ovarian
[45] = tested on: K-562 leukemia
[46] = tested on: IGROV1 ovarian
[47] = tested on: SF-268 CNS
[48] = tested on: SK-MEL-5 melanoma
[49] = tested on: MALME-3M melanoma
[50] = tested on: SF-295 CNS
[51] = tested on: HOP-92 NSCLC
[52] = tested on: LOX IMVI melanoma
[53] = tested on: OVCAR-5 ovarian
[54] = tested on: HL-60(TB) leukemia
[55] = tested on: RPMI-8226 leukemia
[56] = tested on: NCI/ADR-RES ovarian
[57] = tested on: BT-549 breast
[58] = tested on: HCT-116 colon
[59] = tested on: SN12C renal

In the case of `O[C@@]1(C#Cc2ccc3c(c2)OCO3)CCC[C@H]1NCc1ccccc1`, the TGI [1] is reported as 50.2 µM, the TGI [2] is reported as > 100 µM and the TGI [3] is reported as 45.1 µM. The TGI [4] was 44.9 µM, the TGI [5] was > 100 µM and the TGI [6] was 41.2 µM. For the same compound, the TGI [7] was > 100 µM, the TGI [8] was 37.4 µM and the TGI [9] was 50.7 µM. For the same compound, the TGI [10] was 63.9 µM, the TGI [11] was 43.9 µM and the TGI [12] was 38.1 µM. For the same compound, the TGI [13] was 42.7 µM, the TGI [14] was 51.2 µM and the TGI [15] was 86.2 µM. For the same compound, the TGI [16] was 36.4 µM, the TGI [17] was 29.2 µM and the TGI [18] was 51.3 µM. For the same compound, the TGI [19] was > 100 µM, the TGI [20] was 31.9 µM and the TGI [21] was 92.5 µM. The TGI [22] was 50.8 µM, the TGI [23] was 31.3 µM and the TGI [24] was 78.2 µM. For the same compound, the TGI [25] was 39.5 µM, the TGI [26] was 68.4 µM and the TGI [27] was 59 µM. The TGI [28] was > 100 µM, the TGI [29] was > 100 µM and the TGI [30] was 59.6 µM. The TGI [31] was 70.6 µM, the TGI [32] was 32.2 µM and the TGI [33] was 55.3 µM. For the same compound, the TGI [34] was 99.7 µM, the TGI [35] was 69 µM and the TGI [36] was 32.5 µM. The TGI [37] was 89.8 µM, the TGI [38] was 47.4 µM and the TGI [39] was > 100 µM. For the same compound, the TGI [40] was 29.8 µM, the TGI [41] was > 100 µM and the TGI [42] was 47.3 µM. For the same compound, the TGI [43] was > 100 µM, the TGI [44] was > 100 µM and the TGI [45] was 41.5 µM. The TGI [46] was 46.9 µM, the TGI [47] was > 100 µM and the TGI [48] was 36.2 µM. For the same compound, the TGI [49] was 29.6 µM, the TGI [50] was 40.3 µM and the TGI [51] was 38 µM. The TGI [52] was 30.9 µM, the TGI [53] was > 100 µM and the TGI [54] was 39.1 µM. For the same compound, the TGI [55] was 56 µM and the TGI [56] was 40.6 µM.

For `O=c1[nH]c(=O)c2c([nH]1)[nH]c1ccc(Br)cc12`, the TGI [57] was > 100 µM, the TGI [58] was > 100 µM and the TGI [1] was > 100 µM. The TGI [4] was > 100 µM, the TGI [5] was > 100 µM and the TGI [6] was > 100 µM. For the same compound, the TGI [7] was > 100 µM, the TGI [8] was > 100 µM and the TGI [9] was > 100 µM. For the same compound, the TGI [10] was > 100 µM, the TGI [11] was > 100 µM and the TGI [13] was 79.3 µM. For the same compound, the TGI [14] was > 100 µM, the TGI [15] was > 100 µM and the TGI [16] was > 100 µM. The TGI [17] was > 100 µM, the TGI [19] was > 100 µM and the TGI [20] was > 100 µM. The TGI [21] was > 100 µM, the TGI [22] was > 100 µM and the TGI [23] was > 100 µM. The TGI [24] was > 100 µM, the TGI [25] was > 100 µM and the TGI [26] was > 100 µM. The TGI [27] was > 100 µM, the TGI [59] was > 100 µM and the TGI [28] was > 100 µM. The TGI [29] was > 100 µM, the TGI [31] was > 100 µM and the TGI [32] was > 100 µM. For the same compound, the TGI [33] was > 100 µM, the TGI [34] was > 100 µM and the TGI [36] was > 100 µM. For the same compound, the TGI [37] was > 100 µM, the TGI [39] was > 100 µM and the TGI [40] was > 100 µM. For the same compound, the TGI [41] was > 100 µM, the TGI [42] was > 100 µM and the TGI [43] was > 100 µM. The TGI [44] was 56.4 µM, the TGI [46] was > 100 µM and the TGI [47] was > 100 µM. The TGI [48] was > 100 µM, the TGI [49] was > 100 µM and the TGI [50] was > 100 µM. The TGI [51] was > 100 µM, the TGI [52] was > 100 µM and the TGI [53] was > 100 µM. For the same compound, the TGI [54] was > 100 µM, the TGI [55] was > 100 µM and the TGI [56] was > 100 µM.

With `O=C(OCc1ccccc1)C(Cc1ccc(OCc2ccccc2)cn1)NC(=O)C(F)(F)F` (stereo not given) the TGI [57] was > 100 µM, the TGI [58] was > 100 µM and the TGI [1] was > 100 µM. The TGI [2] was > 100 µM, the TGI [3] was > 100 µM and the TGI [4] was > 100 µM. The TGI [5] was > 100 µM, the TGI [7] was > 100 µM and the TGI [8] was > 100 µM. For the same compound, the TGI [9] was > 100 µM, the TGI [10] was > 100 µM and the TGI [11] was > 100 µM. The TGI [12] was > 100 µM, the TGI [13] was > 100 µM and the TGI [14] was > 100 µM. The TGI [15] was > 100 µM, the TGI [18] was > 100 µM and the TGI [19] was > 100 µM. The TGI [21] was > 100 µM, the TGI [22] was > 100 µM and the TGI [23] was > 100 µM. The TGI [24] was > 100 µM, the TGI [25] was > 100 µM and the TGI [26] was > 100 µM. For the same compound, the TGI [27] was > 100 µM, the TGI [59] was > 100 µM and the TGI [28] was > 100 µM. For the same compound, the TGI [29] was > 100 µM, the TGI [30] was > 100 µM and the TGI [31] was > 100 µM. For the same compound, the TGI [32] was > 100 µM, the TGI [35] was > 100 µM and the TGI [36] was > 100 µM. The TGI [37] was 98.8 µM, the TGI [38] was > 100 µM and the TGI [39] was > 100 µM. The TGI [40] was > 100 µM, the TGI [41] was > 100 µM and the TGI [42] was > 100 µM. For the same compound, the TGI [43] was > 100 µM, the TGI [45] was > 100 µM and the TGI [46] was > 100 µM. For the same compound, the TGI [47] was > 100 µM, the TGI [48] was > 100 µM and the TGI [49] was > 100 µM. For the same compound, the TGI [50] was > 100 µM, the TGI [51] was > 100 µM and the TGI [52] was > 100 µM. For the same compound, the TGI [53] was > 100 µM, the TGI [54] was > 100 µM and the TGI [55] was > 100 µM. The TGI [56] was > 100 µM.

In the case of `O=C1CSC(c2ccccc2O)N1c1ccc2c(c1)Oc1c(Cl)c3c(c(Cl)c1=N2)Oc1cc(N2C(=O)CSC2c2ccccc2O)ccc1N=3` (stereo not given), the TGI [58] is reported as > 100 µM, the TGI [1] is reported as > 100 µM and the TGI [2] is reported as > 100 µM. The TGI [3] was 46.4 µM, the TGI [4] was > 100 µM and the TGI [5] was > 100 µM. The TGI [6] was > 100 µM, the TGI [7] was > 100 µM and the TGI [9] was > 100 µM. For the same compound, the TGI [10] was > 100 µM, the TGI [11] was > 100 µM and the TGI [12] was > 100 µM. The TGI [13] was > 100 µM, the TGI [14] was > 100 µM and the TGI [15] was 44.5 µM. The TGI [17] was > 100 µM, the TGI [18] was > 100 µM and the TGI [19] was > 100 µM. The TGI [20] was > 100 µM, the TGI [21] was > 100 µM and the TGI [22] was > 100 µM. The TGI [23] was > 100 µM, the TGI [24] was > 100 µM and the TGI [25] was > 100 µM. The TGI [27] was > 100 µM, the TGI [28] was > 100 µM and the TGI [30] was 65 µM. The TGI [31] was > 100 µM, the TGI [32] was > 100 µM and the TGI [33] was > 100 µM. The TGI [34] was > 100 µM, the TGI [35] was > 100 µM and the TGI [36] was > 100 µM. The TGI [38] was > 100 µM, the TGI [39] was > 100 µM and the TGI [40] was 52 µM. The TGI [41] was 55.1 µM, the TGI [42] was > 100 µM and the TGI [43] was > 100 µM. For the same compound, the TGI [44] was 71.3 µM, the TGI [45] was > 100 µM and the TGI [46] was > 100 µM. For the same compound, the TGI [47] was > 100 µM, the TGI [48] was > 100 µM and the TGI [50] was > 100 µM. The TGI [51] was 39.9 µM, the TGI [52] was > 100 µM and the TGI [53] was > 100 µM. The TGI [54] was > 100 µM, the TGI [55] was > 100 µM and the TGI [56] was > 100 µM.
